Experimental data published in US20250346597A1, “CONDENSED HETEROCYCLIC COMPOUNDS AS INHIBITOR OF DIACYLGLYCEROL KINASES” (BEONE MEDICINES I GMBH, priority 2023, published 2025).

What was measured:
DGKζ = DGKζ (Homo sapiens (Human), UniProt Q13574); assay: Biochemical DGK IC50 assay (ADP-Glo, lipid micelle substrate), DGKζ; conditions: full length DGKζ 0.5 nM, ATP 140 μM, DAG 80 μM
Procedure: (§1) Enzymatic reactions of DGKζ, DGKα and DGKδ were performed using ADP-Glo assay with lipid micelle substrate. […] Full length DGKα (D21-10BG, SignalChem) and full length DGKδ (D23-10G, SignalChem) were purchased. Lipid micelle was prepared by dissolving DAG (Sigma, 317505-10MG) and PS (Sigma, P7769-100MG) with chloroform which was furtherly removed by rotary evaporation. The resulted product was resuspended in buffer containing 25 mM HEPES pH 7.0, 0.5 mM EDTA and 160 mM Octyl P-D glucopyranoside by vigorous mixing and ultrasonic (IID, Scientz).
(§2) The inhibition activities testing for the compound disclosed herein were carried out at room temperature in assay buffer containing 50 mM HEPES, 10 mM MgCl2, 0.01% BSA, 0.1 mM Na3VO4, 0.005% Tween-20 and 0.01 mM CaCl2. Compounds in DMSO were dispensed into wells of a black 384 well plate (Corning 4514) using D300e digital dispenser (Tecan). […] 3 μL 2× enzyme solution was added to wells. […] After 1 hour reaction, 5 μL ADP-Glo reagent (Promga V9101) was added and incubated for 40 minutes. 10 μL Kinase Detection reagent was added and incubated for 30 minutes. Luminescence was measured on a microplate reader (PHERAstar FSX, BMG labtech). The IC50s are calculated based on inhibition of enzyme activity in the presence of increasing concentrations of compounds.
Human His-TEV-DGK-zeta-pFastBac1 and human baculovirus samples was generated using the Bac-to-Bac baculovirus expression system (Invitrogen) according to the manufacturer's protocol. The DNA used for expression of DGK-zeta, have SEQ ID Nos: 1. Baculovirus amplification was achieved using infected SF9 cells at 1:2000 virus/cells ratios, and grown for 96 hours at 27° C. post-transfected.
The expression scaled up for each protein was carried out in the […] from CORNING. 4 L of 3×10^6 cells/mL Sf9 cells (Expression System, Invitrogen) grown in SF900™ II SFM insect medium (Expression System) was infected with virus stock at 1:200 virus/cells ratio, and grown for 48 hours at 27° C. post-transfection. The infected cell culture was harvested by centrifugation at 6000 rpm for 15 min 4° C. in a SORVALL LYNX6000 centrifuge. The cell pellets were stored at −80° C.
Full length human DGKζ produced as described above, was purified from Sf9 baculovirus-infected insect cell paste. The cells were lysed using sonication method, and the lysates were clarified by centrifugation.

DGKα = DGKα (Homo sapiens (Human), UniProt P23743); assay: Biochemical DGK IC50 assay (ADP-Glo, lipid micelle substrate), DGKα; conditions: full length DGKα […], ATP 140 μM, DAG 80 μM; further: full length DGKα 7.5 nM
Procedure: as §1, §2

Chain of DGKζ (Q13574 other isoform, or with tags, fused parts or gaps): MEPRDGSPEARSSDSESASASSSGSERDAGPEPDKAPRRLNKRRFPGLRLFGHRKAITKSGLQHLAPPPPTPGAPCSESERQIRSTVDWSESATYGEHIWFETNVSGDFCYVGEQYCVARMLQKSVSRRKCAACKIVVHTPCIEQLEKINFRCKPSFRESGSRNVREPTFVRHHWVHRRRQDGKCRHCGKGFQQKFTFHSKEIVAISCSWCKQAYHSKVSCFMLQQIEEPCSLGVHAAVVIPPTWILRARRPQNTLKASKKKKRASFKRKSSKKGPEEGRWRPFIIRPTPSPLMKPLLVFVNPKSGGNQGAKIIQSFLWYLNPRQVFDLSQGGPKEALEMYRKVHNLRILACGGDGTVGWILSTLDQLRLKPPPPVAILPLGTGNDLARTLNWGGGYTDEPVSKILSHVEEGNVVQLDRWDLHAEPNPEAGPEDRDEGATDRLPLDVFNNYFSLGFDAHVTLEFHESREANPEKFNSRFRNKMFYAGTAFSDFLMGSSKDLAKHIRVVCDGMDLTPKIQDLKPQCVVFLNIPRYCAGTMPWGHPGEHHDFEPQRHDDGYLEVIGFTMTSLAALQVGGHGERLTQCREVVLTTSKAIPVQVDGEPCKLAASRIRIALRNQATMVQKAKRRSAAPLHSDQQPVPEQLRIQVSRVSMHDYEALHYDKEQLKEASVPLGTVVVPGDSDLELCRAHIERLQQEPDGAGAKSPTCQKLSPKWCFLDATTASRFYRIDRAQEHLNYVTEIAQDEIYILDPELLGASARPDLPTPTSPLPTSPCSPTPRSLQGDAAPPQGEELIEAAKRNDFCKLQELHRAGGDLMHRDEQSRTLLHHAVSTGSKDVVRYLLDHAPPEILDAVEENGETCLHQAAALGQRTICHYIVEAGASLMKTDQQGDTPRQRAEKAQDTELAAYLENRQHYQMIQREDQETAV
Chain of DGKα (P23743 whole entry): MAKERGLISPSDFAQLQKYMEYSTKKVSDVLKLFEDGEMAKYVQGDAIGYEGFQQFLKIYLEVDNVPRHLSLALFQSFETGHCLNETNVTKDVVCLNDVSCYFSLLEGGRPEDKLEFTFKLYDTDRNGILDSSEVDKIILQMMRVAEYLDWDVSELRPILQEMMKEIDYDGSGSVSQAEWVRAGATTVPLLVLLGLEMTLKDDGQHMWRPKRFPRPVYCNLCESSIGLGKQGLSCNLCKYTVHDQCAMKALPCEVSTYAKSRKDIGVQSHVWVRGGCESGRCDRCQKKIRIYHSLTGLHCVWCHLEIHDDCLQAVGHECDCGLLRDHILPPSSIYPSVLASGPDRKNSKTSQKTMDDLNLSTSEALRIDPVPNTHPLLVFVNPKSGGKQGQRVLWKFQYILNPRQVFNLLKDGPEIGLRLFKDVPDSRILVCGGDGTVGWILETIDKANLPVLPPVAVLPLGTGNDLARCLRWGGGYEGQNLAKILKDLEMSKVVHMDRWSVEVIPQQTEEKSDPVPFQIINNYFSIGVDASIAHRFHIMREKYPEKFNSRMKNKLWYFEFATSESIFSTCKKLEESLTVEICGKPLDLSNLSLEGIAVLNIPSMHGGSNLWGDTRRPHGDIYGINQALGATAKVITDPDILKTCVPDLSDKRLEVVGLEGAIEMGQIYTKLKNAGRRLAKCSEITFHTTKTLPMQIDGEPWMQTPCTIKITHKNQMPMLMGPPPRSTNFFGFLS

Row | SMILES | IC50 (DGKζ) [nM] | IC50 (DGKα) [nM]
1 | CC[C@H]1CN(C(C)c2ccn3ncc(C)c3n2)[C@H](CC)CN1c1cc(=O)n(C)c2cn(CC#N)nc12 (single isomer, unassigned) [Compound A151a] | 4610 | 7320
2 | CC[C@H]1CN(C(C)c2ccc3c(c2)OC(F)(F)O3)[C@H](CC)CN1c1cc(=O)n(C)c2cn(CC#N)nc12 (stereo partly drawn) [Compound A197, 2-(7-((2S,5R)-4-(1-(2,2-difluorobenzo[d][1,3]dioxol-5-yl)ethyl)-2,5-diethylpiperazin-1-yl)-4-methyl-5-oxo-4,5-dihydro-2H-pyrazolo[4,3-b]pyridin-2-yl)acetonitrile] | 252 | 711
3 | CC[C@H]1CN(C(C)c2ccc(OC)cc2C)[C@H](CC)CN1c1cc(=O)n(C)c2cn(CC#N)nc12 (stereo partly drawn) [Compound A14, 2-(7-((2S,5R)-2,5-diethyl-4-(1-(4-methoxy-2-methylphenyl)ethyl)piperazin-1-yl)-4-methyl-5-oxo-4,5-dihydro-2H-pyrazolo[4,3-b]pyridin-2-yl)acetonitrile] | 63 | 8410
4 | CC[C@H]1CN(C(C)c2cnc(C3CC3)cc2F)[C@H](CC)CN1c1cc(=O)n(C)c2cn(CC#N)nc12 (single isomer, unassigned) [Compound A47b] | 1120 | 3520
5 | CC[C@H]1CN(C(C)c2nc3c(s2)CCCC3)[C@H](CC)CN1c1cc(=O)n(C)c2cn(CC#N)nc12 (single isomer, unassigned) [Compound A36b] | 946 | 2110
6 | CC(c1ccc2ncsc2c1)N1C[C@H](C)N(c2cc(=O)n(C)c3cn(CC#N)nc23)C[C@H]1C (stereo partly drawn) [Compound A93, 2-(7-((2S,5R)-4-(1-(benzo[d]thiazol-6-yl)ethyl)-2,5-dimethylpiperazin-1-yl)-4-methyl-5-oxo-4,5-dihydro-2H-pyrazolo[4,3-b]pyridin-2-yl)acetonitrile] | 99 | 493
7 | CC[C@H]1CN(C(C)c2ccc3nc(COC)sc3c2)[C@H](CC)CN1c1cc(=O)n(C)c2cn(CC#N)nc12 (single isomer, unassigned) [Compound A145a] | 47 | 545
8 | Cc1cc2nc(C(C)N3C[C@H](C)N(c4cc(=O)n(C)c5cn(CC#N)nc45)C[C@H]3C)ccc2s1 (single isomer, unassigned) [Compound A155a] | 20 | 1140
9 | CC[C@H]1CN(C(C)c2ccn3nc(C)c(F)c3c2)[C@H](CC)CN1c1cc(=O)n(C)c2cn(CC#N)nc12 (single isomer, unassigned) [Compound A169a] | 211 | 3210
10 | CC[C@H]1CN(C(C)c2ccc(NC(C)=O)c(O)c2F)[C@H](CC)CN1c1cc(=O)n(C)c2cn(CC#N)nc12 (single isomer, unassigned) [Compound A87a] | 2820 | 2010
11 | CC[C@H]1CN(C(C)c2ccc3nc(COC)sc3n2)[C@H](CC)CN1c1cc(=O)n(C)c2cn(CC#N)nc12 (single isomer, unassigned) [Compound A143a] | 2150 | 3180
12 | CC[C@H]1CN(C(C)c2ccc(C3CC3)nc2)[C@H](CC)CN1c1cc(=O)n(C)c2cn(C3COC3)nc12 (stereo partly drawn) [Compound A121, 7-((2S,5R)-4-(1-(6-cyclopropylpyridin-3-yl)ethyl)-2,5-diethylpiperazin-1-yl)-4-methyl-2-(oxetan-3-yl)-2,4-dihydro-5H-pyrazolo[4,3-b]pyridin-5-one] | 1470 | 3080
13 | CC[C@H]1CN(C(C)c2ccc(OC3COC3)c(F)c2)[C@H](CC)CN1c1cc(=O)n(C)c2cn(CC#N)nc12 (single isomer, unassigned) [Compound A23a] | 3740 | 2350
14 | CC[C@H]1CN(C(C)c2ccc(N)nc2)[C@H](CC)CN1c1cc(=O)n(C)c2cn(CC#N)nc12 (single isomer, unassigned) [Compound A187b] |  | 11900

Now those with a lower IC50 (DGKα), led by results:

Row | IC50 (DGKζ) [nM] | IC50 (DGKα) [nM] | SMILES
15 | 108 | 158 | CC[C@@H]1CN(c2cc(=O)n(C)c3cn(CC#N)nc23)[C@@H](C)CN1C(C)c1ccn2nc(C)cc2n1 (single isomer, unassigned) [Compound A172a]
16 | 195 | 72 | CCc1cn2nc(C(C)N3C[C@H](CC)N(c4cc(=O)n(C)c5cn(CC#N)nc45)C[C@H]3CC)ccc2n1 (single isomer, unassigned) [Compound A153b]
17 | 770 | 344 | CC[C@H]1CN([C@@H](C)c2ccc(OC(C)C)cc2)[C@H](CC)CN1c1cc(=O)n(C)c2cn(CC#N)nc12 [Compound A33b]
18 | 123 | 43 | CC[C@H]1CN(C(C)c2ccc(OC3CC3)cn2)[C@H](CC)CN1c1cc(=O)n(C)c2cn(CC#N)nc12 (stereo partly drawn) [Compound A201, 2-(7-((2S,5R)-4-(1-(5-cyclopropoxypyridin-2-yl)ethyl)-2,5-diethylpiperazin-1-yl)-4-methyl-5-oxo-4,5-dihydro-2H-pyrazolo[4,3-b]pyridin-2-yl)acetonitrile]
19 | 9.1 | 108 | CC[C@@H]1CN(c2cc(=O)n(C)c3cn(CC#N)nc23)[C@@H](C)CN1C(C)c1ccc2ncsc2c1 (single isomer, unassigned) [Compound A92a]
20 | 126 | 91 | CC[C@H]1CN(C(C)c2ccc3c(n2)CCO3)[C@H](CC)CN1c1cc(=O)n(C)c2cn(CC#N)nc12 (stereo partly drawn) [Compound A73, 2-(7-((2S,5R)-4-(1-(2,3-dihydrofuro[3,2-b]pyridin-5-yl)ethyl)-2,5-diethylpiperazin-1-yl)-4-methyl-5-oxo-4,5-dihydro-2H-pyrazolo[4,3-b]pyridin-2-yl)acetonitrile]
21 | 15 | 47 | CC[C@H]1CN(C(C)c2ccn3nc(C)c(F)c3n2)[C@H](CC)CN1c1cc(=O)n(C)c2cn(CC#N)nc12 (single isomer, unassigned) [Compound A160b]
22 | 143 | 311 | CC#CCn1cc2c(n1)c(N1C[C@@H](CC)N(C(C)c3ccc4nc(C)sc4c3F)C[C@@H]1CC)cc(=O)n2C (single isomer, unassigned) [Compound A138a]
23 | 142 | 215 | CC[C@H]1CN(C(C)c2ccc(COC)cc2)[C@H](CC)CN1c1cc(=O)n(C)c2cn(CC#N)nc12 (stereo partly drawn) [Compound A205, 2-(7-((2S,5R)-2,5-diethyl-4-(1-(4-(methoxymethyl)phenyl)ethyl)piperazin-1-yl)-4-methyl-5-oxo-4,5-dihydro-2H-pyrazolo[4,3-b]pyridin-2-yl)acetonitrile]
24 | 31 | 467 | CC[C@H]1CN(C(C)c2ccc3c(C)cnn3c2)[C@H](CC)CN1c1cc(=O)n(C)c2cn(CC#N)nc12 (single isomer, unassigned) [Compound A204a]
25 | 12 | 96 | CC[C@H]1CN(C(C)c2ccn3ncc(F)c3c2)[C@H](CC)CN1c1cc(=O)n(C)c2cn(CC#N)nc12 (single isomer, unassigned) [Compound A165a]
26 | 20 | 108 | [2H]C([2H])([2H])C(c1ccc2nc(C)sc2n1)N1C[C@H](CC)N(c2cc(=O)n(C([2H])([2H])[2H])c3cn(CC#N)nc23)C[C@H]1CC (single isomer, unassigned) [Compound A142b]
27 | 92 | 440 | CC[C@H]1CN(C(C)c2ccc(OC)cc2F)[C@H](CC)CN1c1cc(=O)n(C)c2cn(CC#N)nc12 (stereo partly drawn) [Compound A12, 2-(7-((2S,5R)-2,5-diethyl-4-(1-(2-fluoro-4-methoxyphenyl)ethyl)piperazin-1-yl)-4-methyl-5-oxo-4,5-dihydro-2H-pyrazolo[4,3-b]pyridin-2-yl)acetonitrile]
28 | 9 | 65 | CC[C@H]1CN(C(C)c2ccc3nsnc3c2)[C@H](CC)CN1c1cc(=O)n(C)c2cn(CC#N)nc12 (single isomer, unassigned) [Compound A106a]
29 | 298 | 143 | CC[C@H]1CN(C(C)c2ccc(COC)cn2)[C@H](CC)CN1c1cc(=O)n(C)c2cn(CC#N)nc12 (stereo partly drawn) [Compound A61, 2-(7-((2S,5R)-2,5-diethyl-4-(1-(5-(methoxymethyl)pyridin-2-yl)ethyl)piperazin-1-yl)-4-methyl-5-oxo-4,5-dihydro-2H-pyrazolo[4,3-b]pyridin-2-yl)acetonitrile]
30 | 23 | 310 | CC[C@H]1CN(C(C)c2ccn3nc(C)c(C)c3n2)[C@H](CC)CN1c1cc(=O)n(C)c2cn(CC#N)nc12 (single isomer, unassigned) [Compound A156b]
